Read-outs that look alike come from different tables or passages of the source.
Legend:
CaV3.3 = CaV3.3 (Homo sapiens, UniProt Q9P0X4); test: T-type calcium channel window current FLIPR assay, CaV3.3; type: cell-based
Protocol: (§1) The human embryonic kidney 293 (HEK 293) cell lines (from Emmanuel Bourinet, Montpellier, France) stably expressing CaV3.2 or CaV3.3 were cultured under 5% carbon dioxide at 37 °C in Dulbecco’s Modified Eagle Medium (DMEM) Glutamax (Gibco, Life Technologies, Carlsbad, CA, USA) supplemented with 10% (v/v) fetal bovine serum (FBS), 100 U/mL penicillin, 100 μg/mL streptomycin (Gibco, Life Technologies), and 750 μg/mL geneticin (G418) (Gibco, Life Technologies). The Chinese Hamster Ovary (CHO) cell lines (Emmanuel Bourinet, Montpellier, France) expressing CaV3.1 were cultured under 5% carbon dioxide at 37 °C in Alpha Minimum Essential Media (MEM) Glutamax (Gibco, Life Technologies), supplemented with 10% (v/v) fetal bovine serum (FBS) and 300 μg/mL geneticin (G418) (Gibco, Life Technologies). The human neuroblastoma SH-SY5 Y cells (Victor Diaz, Goettingen, Germany) were cultured under 5% carbon dioxide at 37 °C in RPMI 1640 antibiotic-free medium (Invitrogen, Carlsbad, CA, USA), supplemented with 15% FBS and 2 mM GlutaMAX™ (Invitrogen). D-PBS (Gibco, Life Technologies) was used to wash the cells, and 0.25% Trypsin-EDTA (Gibco, Life Technologies) was used to detach cells from the flask surface. They were split in a ratio of 1:5 (ideally 1000 cells/cm^2) when they reached 70%–80% confluence (every 2–3 days). Transiently transfected CaV3.1HEK293 T cells were used in FLIPR Assays. HEK 293 T cells were cultured under 5% carbon dioxide at 37 °C in DMEM supplemented with 10% (v/v) FBS. D-PBS was used to wash the cells, and 0.25% Trypsin-EDTA was used to detach cells from the flask surface. The cells were split and seeded at 6 million cells per T175 flask, to reach 70%–80% confluence after 24 h. The next day, 12 μg DNA of human CaV3.1 was incubated in 900 μL serum-free DMEM with 36 μL FuGENE HD transfection reagent (Promega Corporation, Madison, WI, US) (1:3 DNA/Fugene ratio) for 20 min, and then the mixture was added into the cell flask slowly, drop by drop. After the transfection, the cells were cultured under 5% carbon dioxide at 37 °C for 24 h and then moved to a 28 °C incubator.
HEK 293 cells stably expressing CaV3.2 or CaV3.3 were seeded into 384-well black wall clear bottom plates (Corning, Lowell, MA, USA) at a density of 30,000 cells per well. Transiently transfected CaV3.1HEK293 T cells were seeded into 384-well black wall clear bottom plates at a density of 60,000 cells per well. Once the cells reached 90%–95% confluence after 24 h, the media were removed from the wells and replaced with 20 μL of 10% calcium 4 dye (Molecular Devices, Sunnyvale, CA, USA) in HBSS-HEPES (containing 5 mM KCl, 10 mM HEPES, 140 mM NaCl, 10 mM glucose, and 0.5 mM CaCl2, pH 7.4) with 0.1% bovine serum albumin (BSA). The cells were incubated for 30 min at 37 °C in the presence of 5% carbon dioxide. Each well on the reagent plates for the first addition contained 15 μL different concentrations of compounds dissolved in HBSS-HEPES containing 0.1% BSA and <0.1% DMSO and was incubated for 20 min after loading. Positive and negative controls contained 15 μL of HBSS-HEPES (0.1% BSA) alone. The plates were placed in the FLIPR^TETRA (Molecular Devices, Sunnyvale, CA, USA) programmed to measure maximum fluorescence intensity following a second addition of the agonist 5 mM CaCl2. The data acquisition parameters were adjusted as follows: Baseline fluorescence of 1500–2000 arbitrary fluorescence units (AFU), emission wavelength of 515–575 nm, and excitation wavelength of 470–495 nm. HBSS-HEPES (0.1% BSA) was used in the second addition as a negative control. One fluorescence reading was taken before the second addition. Then the fluorescence readings were recorded every two seconds for 300 s. Raw fluorescence readings in the form of relative light units were converted to response over baseline using ScreenWorks® (Molecular Devices, version 3.2.0.14) software.
Data were plotted and analyzed using GraphPad Prism v7.0 (GraphPad Software Inc., San Diego, CA, USA).

[1] = molecular target: recombinant hCaV3.3 channels (Homo sapiens, UniProt Q9P0X4); test: Whole-cell patch-clamp QPatch 16 X, CaV3.3; type: cell-based
Protocol: as §1
Whole-cell patch-clamp experiments were performed on an automated electrophysiology platform QPatch 16 X (Sophion Bioscience A/S, Ballerup, Denmark) in single-hole configuration using 16-channel planar patch chip QPlates (Sophion Bioscience A/S). The extracellular recording solution contained, in mM: TEACl 157, MgCl2 0.5, CaCl2 5, and HEPES 10; pH 7.4 adjusted with TEAOH; and osmolarity 320 mOsm. The intracellular pipette solution contained, in mM: CsF 140, EGTA 1, HEPES 10, and NaCl 10; pH 7.2 adjusted with CsOH; and osmolarity 325 mOsm. […]
Data were plotted and analyzed using GraphPad Prism v7.0 (GraphPad Software Inc., San Diego, CA, USA). […]

CaV3.3, sequence (Q9P0X4 whole entry): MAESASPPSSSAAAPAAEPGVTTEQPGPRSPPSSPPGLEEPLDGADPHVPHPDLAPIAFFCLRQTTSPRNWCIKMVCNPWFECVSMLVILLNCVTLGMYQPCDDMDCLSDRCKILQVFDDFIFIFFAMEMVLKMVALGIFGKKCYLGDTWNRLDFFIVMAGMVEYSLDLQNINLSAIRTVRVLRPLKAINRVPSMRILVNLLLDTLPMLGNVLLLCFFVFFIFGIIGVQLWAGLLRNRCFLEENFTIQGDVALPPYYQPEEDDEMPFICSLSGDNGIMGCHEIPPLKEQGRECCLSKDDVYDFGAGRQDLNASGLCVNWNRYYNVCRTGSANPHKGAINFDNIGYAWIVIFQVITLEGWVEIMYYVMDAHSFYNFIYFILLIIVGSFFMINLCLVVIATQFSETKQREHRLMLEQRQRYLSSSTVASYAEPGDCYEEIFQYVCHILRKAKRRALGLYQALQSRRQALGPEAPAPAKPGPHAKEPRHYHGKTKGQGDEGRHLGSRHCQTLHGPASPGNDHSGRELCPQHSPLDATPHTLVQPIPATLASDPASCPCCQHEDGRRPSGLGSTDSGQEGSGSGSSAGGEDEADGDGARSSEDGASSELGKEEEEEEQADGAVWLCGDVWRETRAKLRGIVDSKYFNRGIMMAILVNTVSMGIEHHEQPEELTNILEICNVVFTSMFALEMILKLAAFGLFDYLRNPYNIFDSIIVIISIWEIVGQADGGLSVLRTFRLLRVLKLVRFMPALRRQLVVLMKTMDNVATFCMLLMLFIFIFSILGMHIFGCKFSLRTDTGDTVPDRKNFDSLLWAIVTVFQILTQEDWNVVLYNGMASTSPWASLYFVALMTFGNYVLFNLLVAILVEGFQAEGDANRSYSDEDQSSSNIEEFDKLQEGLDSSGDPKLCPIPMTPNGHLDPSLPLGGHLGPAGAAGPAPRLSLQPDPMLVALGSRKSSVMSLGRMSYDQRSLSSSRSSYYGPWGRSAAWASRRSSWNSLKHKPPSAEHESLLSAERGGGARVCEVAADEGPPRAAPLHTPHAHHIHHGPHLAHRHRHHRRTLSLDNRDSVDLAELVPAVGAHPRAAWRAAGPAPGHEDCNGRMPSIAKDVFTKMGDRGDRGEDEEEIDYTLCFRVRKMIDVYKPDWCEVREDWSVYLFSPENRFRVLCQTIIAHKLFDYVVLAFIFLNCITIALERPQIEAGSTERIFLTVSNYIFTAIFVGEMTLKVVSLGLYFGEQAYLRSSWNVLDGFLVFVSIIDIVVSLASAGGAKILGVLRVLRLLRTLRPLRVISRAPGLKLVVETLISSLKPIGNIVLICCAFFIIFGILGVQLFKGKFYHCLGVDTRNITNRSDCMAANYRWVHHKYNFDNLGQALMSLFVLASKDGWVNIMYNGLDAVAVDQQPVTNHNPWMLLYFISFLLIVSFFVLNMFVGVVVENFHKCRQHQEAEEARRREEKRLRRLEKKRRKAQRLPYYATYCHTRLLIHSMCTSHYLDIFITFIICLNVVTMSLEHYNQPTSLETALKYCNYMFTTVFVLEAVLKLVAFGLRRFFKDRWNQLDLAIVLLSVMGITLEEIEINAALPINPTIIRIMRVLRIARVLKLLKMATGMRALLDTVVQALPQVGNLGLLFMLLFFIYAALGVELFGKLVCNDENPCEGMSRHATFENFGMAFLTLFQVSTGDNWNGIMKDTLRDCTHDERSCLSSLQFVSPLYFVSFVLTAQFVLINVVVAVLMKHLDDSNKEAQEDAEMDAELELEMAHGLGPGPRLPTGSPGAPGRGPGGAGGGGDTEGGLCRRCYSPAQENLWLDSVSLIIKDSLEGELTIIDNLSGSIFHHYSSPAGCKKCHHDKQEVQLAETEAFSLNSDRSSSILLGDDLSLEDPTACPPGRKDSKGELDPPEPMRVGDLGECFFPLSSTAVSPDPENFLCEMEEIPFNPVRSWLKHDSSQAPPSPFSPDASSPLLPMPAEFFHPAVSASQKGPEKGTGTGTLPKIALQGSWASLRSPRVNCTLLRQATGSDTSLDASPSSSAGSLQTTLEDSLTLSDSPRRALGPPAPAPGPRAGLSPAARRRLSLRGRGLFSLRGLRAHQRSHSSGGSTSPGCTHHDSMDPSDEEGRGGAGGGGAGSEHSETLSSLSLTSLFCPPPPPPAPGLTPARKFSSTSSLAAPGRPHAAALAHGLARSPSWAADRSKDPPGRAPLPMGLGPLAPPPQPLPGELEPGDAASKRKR
recombinant hCaV3.3 channels, sequence (Q9P0X4 whole entry): as above

## COC(=O)[C@H](Cc1c[nH]c2ccccc12)NC(=O)C(C)(c1c[nH]c2ccccc12)c1c[nH]c2ccccc12 [Compound 3, Methyl (2,2-di(1H-indol-3-yl)propanoyl)-L-tryptophanate]
CaV3.3; FLIPR window current assay, HEK 293 stable, N = 3, mean ± SEM, read-out: IC50 CaV3.3 (LVA CaVs)
  IC50: 3.81 ± 1.08 µM
CaV3.3; FLIPR, representative curve, n = 4, read-out: IC50 of the representative concentration-response curve, CaV3.3 window current
  IC50: 3.05 µM
CaV3.3; FLIPR, CaV3.3 better than HVA CaVs
  Potency at CaV3.3 window current relative to potency at HVA CaVs: > 8 fold
[1]; QPatch whole-cell, full inhibition, read-out: Emax value, inhibition of CaV3.3 whole-cell current
  Emax: ≥ 95%
[1]; QPatch, 200 nM compound, read-out: Inhibition of the CaV3.3 peak current
  inhibition at 0.2 µM: < 10%
[1]; QPatch, 200 ms steps to Vmax (−10 mV) from holding −90 mV, n = 5, mean ± SEM, read-out: IC50 CaV3.3 whole-cell current
  IC50: 15.8 ± 2.28 µM
[1]; QPatch, in the presence of compound
  Voltage-dependence of steady-state inactivation of CaV3.3, in words: not significantly shifted
